The record followed here is patent US20220402925A1, “COMPOUNDS AND METHODS FOR THE TREATMENT OF CYSTIC FIBROSIS” (Flatley Discovery Lab, LLC, priority 2019, published 2022).

Experiment [1] concerns the target T1, F508del CFTR (Homo sapiens, UniProt P13569, DEL508-508).
T1 construct: Primary CF airway epithelial cells were obtained from the UNC Cystic Fibrosis Tissue Procurement and Cell Culture Core; host or cells: primary CF airway epithelial cells
Description: Equivalent current assay in primary CF airway epithelial cells (Corrector Activity, NAUC normalized to 3 μM VX809). The conditions noted are these: NAUC as % of positive control (VX-809). It counts as cell-based. Summed up:
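Differentiated primary CF airway cells treated basolaterally 24 h at 37° C with compound (0.1% DMSO). Equivalent current recorded after 5 μM benzamil, stimulation with 10 μM forskolin plus 1 μM VX-770 or 3 μM FDL176, and block by 20 μM CFTR-172; vehicle-subtracted AUC normalized to 3 μM VX809; EC50 from sigmoid fit, Hill slope 1.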

Experiment [2] concerns the target T1, F508del CFTR. Briefly: CoPo (corrector plus potentiator) equivalent current assay in primary CF airway epithelial cells, test compound added back as potentiator, no VX-770. The experiment is classed as cell-based. Set-up: key: +++: NAUC>70% of positive control; ++: NAUC 70-40% of positive control; +: NAUC<40% of positive control; O: no positive response. The settings on record: CoPo as % of positive control (VX-809 + acute VX-770). As for the experimental part: It was noticed that many of the test compounds had potentiator activity in addition to corrector activity. These compounds have been denoted as CoPos by FDL and others. To measure both the corrector and potentiator activity of a compound the following changes were made to the test conditions. Cells were treated as usual with the test compounds for at least 24 hours before the experiment. 30 minutes prior to the experiment the test compound is added back to the testing solution to act as a potentiator and no VX-770 (the standard CFTR potentiator) was used with the test compound. The negative control was no longer just DMSO (no corrector) but changed to VX-809 (the standard corrector) plus VX-770 treatment for at least 24 hours. 30 minutes prior to the experiment both VX-809 and VX-770 were added back to the testing solution. This treatment led to a smaller response than the positive control of correcting F508del CFTR with VX-809 alone for at least 24 hours and adding VX-770 acutely with the forskolin addition (just as in the corrector assay).
A CoPo reading of zero means that the test compound has the same forskolin stimulated response as VX-809+VX-770 treatment for 24 hours. A CoPo reading of 1.0 means the test compound has the same forskolin response as cell treated with VX-809 and stimulated with forskolin+VX-770. CoPo activity “+++” refers to an observed CoPo>70% of positive control; CoPo activity “++” refers to an observed CoPo 70-40% of positive control; CoPo activity “+” refers to an observed CoPo<40% of positive control and “O” refers to no positive response.

T1 sequence (P13569 with tags, fused parts or gaps DEL508-508): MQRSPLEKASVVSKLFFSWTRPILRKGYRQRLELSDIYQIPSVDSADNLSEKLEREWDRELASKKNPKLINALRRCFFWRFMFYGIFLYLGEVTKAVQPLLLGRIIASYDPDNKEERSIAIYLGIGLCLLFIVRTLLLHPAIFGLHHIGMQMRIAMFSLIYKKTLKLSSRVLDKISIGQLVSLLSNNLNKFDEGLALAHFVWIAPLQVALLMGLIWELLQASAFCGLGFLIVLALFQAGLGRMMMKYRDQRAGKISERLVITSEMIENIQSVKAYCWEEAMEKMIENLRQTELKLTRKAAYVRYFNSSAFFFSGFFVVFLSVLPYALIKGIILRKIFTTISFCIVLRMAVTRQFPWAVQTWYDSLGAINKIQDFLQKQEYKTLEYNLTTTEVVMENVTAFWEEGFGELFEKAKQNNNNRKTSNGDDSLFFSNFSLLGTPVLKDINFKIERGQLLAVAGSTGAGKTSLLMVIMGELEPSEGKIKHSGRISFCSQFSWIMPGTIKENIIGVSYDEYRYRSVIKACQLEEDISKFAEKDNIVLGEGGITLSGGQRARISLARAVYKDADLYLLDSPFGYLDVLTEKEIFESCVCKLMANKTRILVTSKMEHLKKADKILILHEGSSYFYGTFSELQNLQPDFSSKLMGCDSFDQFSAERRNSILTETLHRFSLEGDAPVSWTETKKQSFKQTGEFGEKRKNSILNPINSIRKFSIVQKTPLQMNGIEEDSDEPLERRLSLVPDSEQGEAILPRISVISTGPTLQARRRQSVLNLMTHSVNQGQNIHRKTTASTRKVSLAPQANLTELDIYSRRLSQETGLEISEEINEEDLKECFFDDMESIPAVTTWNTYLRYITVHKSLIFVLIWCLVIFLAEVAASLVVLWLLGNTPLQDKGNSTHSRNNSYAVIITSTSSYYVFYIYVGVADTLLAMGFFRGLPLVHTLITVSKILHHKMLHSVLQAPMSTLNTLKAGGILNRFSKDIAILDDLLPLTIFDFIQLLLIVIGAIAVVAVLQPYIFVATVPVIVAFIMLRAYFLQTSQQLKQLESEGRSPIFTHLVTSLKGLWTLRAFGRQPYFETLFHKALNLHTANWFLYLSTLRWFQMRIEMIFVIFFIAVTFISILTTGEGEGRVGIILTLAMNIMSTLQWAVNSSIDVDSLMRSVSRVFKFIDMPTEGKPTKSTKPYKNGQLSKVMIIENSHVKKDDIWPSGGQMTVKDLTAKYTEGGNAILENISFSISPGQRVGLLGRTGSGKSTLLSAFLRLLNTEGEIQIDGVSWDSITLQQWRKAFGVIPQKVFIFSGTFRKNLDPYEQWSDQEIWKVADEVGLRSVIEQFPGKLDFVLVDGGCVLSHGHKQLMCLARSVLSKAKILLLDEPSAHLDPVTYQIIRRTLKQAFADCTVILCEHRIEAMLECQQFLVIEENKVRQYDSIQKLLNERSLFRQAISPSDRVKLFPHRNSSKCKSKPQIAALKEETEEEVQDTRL

In the case of `CN(C(=O)Cn1nc(-c2cccc(F)c2)c2occc2c1=O)c1ccc2c(c1)OC(F)(F)O2` [Example 8], the “Corr Activity (NAUC)” value in experiment [1] is “+++ (NAUC>70% of positive control)”. The “CoPo Activity” value in experiment [2] is “++ (CoPo 70-40% of positive control)”.

For the compound `CN(C(=O)Cn1nc(-c2cccc(F)c2)c2nc[nH]c2c1=O)c1ccc2c(c1)OC(F)(F)O2` [Example 21], the “Corr Activity (NAUC)” value in experiment [1] was “+ (NAUC<40% of positive control)”. Besides, the “CoPo Activity” value in experiment [2] was “O”.

In the case of `CN(C(=O)Cn1nc(-c2cccc(Cl)c2)c2[nH]cnc2c1=O)c1ccc2c(c1)OC(F)(F)O2` [Example 22], the “Corr Activity (NAUC)” value in experiment [1] is given as “++ (NAUC 70-40% of positive control)”. Moreover, the “CoPo Activity” value in experiment [2] is recorded as “O”.

Regarding `CN(C(=O)Cn1nc(-c2cccc(C#N)c2)c2[nH]cnc2c1=O)c1ccc2c(c1)OC(F)(F)O2` [Example 23], in experiment [1], the “Corr Activity (NAUC)” value was “+ (NAUC<40% of positive control)”. Also, the “CoPo Activity” value in experiment [2] is recorded as “+ (CoPo<40% of positive control)”.

On to `CCN(C(=O)Cn1nc(-c2cccc(C#N)c2)c2occc2c1=O)c1ccc2c(c1)CCC2` [Example 12], for which the “Corr Activity (NAUC)” value in experiment [1] is reported as “+++ (NAUC>70% of positive control)”. The “CoPo Activity” value in experiment [2] is “+++ (CoPo>70% of positive control)”.

Turning to `CN(C(=O)Cn1nc(-c2cccc(C#N)c2)c2occc2c1=O)c1ccc2c(c1)OC(F)(F)O2` [Example 11], in experiment [1], the “Corr Activity (NAUC)” value is listed as “+++ (NAUC>70% of positive control)”. Moreover, the “CoPo Activity” value in experiment [2] is given as “+++ (CoPo>70% of positive control)”.

`CCN(C(=O)Cn1nc(-c2cccc(F)c2)c2[nH]cnc2c1=O)c1ccc2c(c1)OC(F)(F)O2` [Example 25]: the “Corr Activity (NAUC)” value in experiment [1] is “+++ (NAUC>70% of positive control)”. Also, in experiment [2], the “CoPo Activity” value is “+ (CoPo<40% of positive control)”.

As for `CN(C(=O)Cn1nc(-c2cccc(F)c2)c2c(c1=O)CCO2)c1ccc2c(c1)OC(F)(F)O2` [Example 160], in experiment [1], the “Corr Activity (NAUC)” value is given as “++ (NAUC 70-40% of positive control)”. Also, the “CoPo Activity” value in experiment [2] is “+ (CoPo<40% of positive control)”.

`CCN(C(=O)Cn1nc(-c2cccc(C#N)c2)c2[nH]cnc2c1=O)c1ccc2c(c1)OC(F)(F)O2` [Example 24]: the “Corr Activity (NAUC)” value in experiment [1] is “+++ (NAUC>70% of positive control)”. Further, in experiment [2], the “CoPo Activity” value is reported as “+++ (CoPo>70% of positive control)”.

As for `CCN(C(=O)Cn1nc(-c2cccc(C#N)c2)c2occc2c1=O)c1ccc2c(c1)OC(F)(F)O2` [Example 10], the “Corr Activity (NAUC)” value in experiment [1] was “+++ (NAUC>70% of positive control)”. Moreover, the “CoPo Activity” value in experiment [2] was “+++ (CoPo>70% of positive control)”.

Regarding `CN(C(=O)Cn1nc(-c2cccc(Cl)c2)c2occc2c1=O)c1ccc2c(c1)OC(F)(F)O2` [Example 9], the “Corr Activity (NAUC)” value in experiment [1] is on record as “+++ (NAUC>70% of positive control)”. Further, the “CoPo Activity” value in experiment [2] is listed as “+++ (CoPo>70% of positive control)”.

Regarding `CCN(C(=O)Cn1nc(-c2cccc(F)c2)c2c(c1=O)CCO2)c1ccc2c(c1)OC(F)(F)O2` [Example 161], the “Corr Activity (NAUC)” value in experiment [1] was “+++ (NAUC>70% of positive control)”. For the same compound, the “CoPo Activity” value in experiment [2] was “++ (CoPo 70-40% of positive control)”.

Take `CCN(C(=O)Cn1nc(-c2ccc3c(c2)OC(F)(F)O3)c2[nH]cnc2c1=O)c1ccc2c(c1)OC(F)(F)O2` [Example 311]: in experiment [1], the “Corr Activity (NAUC)” value was “+ (NAUC<40% of positive control)”.

As for `O=C(Cn1nc(-c2cc(Cl)cc(N3CCCC3)c2)c2[nH]cnc2c1=O)N(c1ccc2c(c1)OC(F)(F)O2)C1CC1` [Example 400], the “Corr Activity (NAUC)” value in experiment [1] is “+++ (NAUC>70% of positive control)”.

On to `Cc1cc(Cl)cc(-c2nn(CC(=O)N(c3ccc4c(c3)OC(F)(F)O4)C3CC3)c(=O)c3nc[nH]c23)c1` [Example 392], for which the “Corr Activity (NAUC)” value in experiment [1] is recorded as “+++ (NAUC>70% of positive control)”.

In the case of `CC(C)(C)NC(=O)c1cc2c(=O)n(CC(=O)N3CCCc4c3ccc3c4OC(F)(F)O3)nc(-c3cccc(Cl)c3)c2o1` [Example 128], in experiment [1], the “Corr Activity (NAUC)” value is “++ (NAUC 70-40% of positive control)”.

In the case of `Cc1nc2ccc(N(C)C(=O)Cn3nc(-c4cccc(F)c4)c4oc5ccccc5c4c3=O)cc2o1` [Example 157], the “Corr Activity (NAUC)” value in experiment [1] was “++ (NAUC 70-40% of positive control)”.
